Assays:
[1] = system: SARS-CoV-2B.1.1.7 variant; type: cell-based; conditions: at the highest concentrations; Vero B4 cells, 72 hrs, qRT-PCR
[2] = system: SARS-CoV-2 B1.351 variant; type: cell-based; conditions: at the highest concentrations; Vero B4 cells, 72 hrs, qRT-PCR

Cn1c(=O)c(Oc2ccc(F)cc2F)cc2cnc(NC(CCO)CCO)nc21 [Pamapimod, 6-(2,4-Difluorophenoxy)-2-[3-hydroxy-1-(2-hydroxyethyl)-propylamino]-8-methyl-8H-pyrido[2,3-d]pyrimidin-7-one]
inhibition of viral shedding, B.1.1.7 variant [1]: > 90%
inhibition of viral shedding, B1.351 variant [2]: > 90%
